Key:
[1] = Efficacy test: odor of incubated underarm sweat judged by a panel of experts against control sweat; parameters: species or system human; settings: 37° C, average of 18 hours and 24 hours, compared with control sweat
Description: Underarm sweat was collected from six volunteers in a sauna, the samples of individual sweat, stored in ice for a few hours, are at that point virtually odorless. They were subsequently mixed together and divided into 1 ml aliquots. The active agents were added to these aliquots, which were then incubated in an oven at 37° C. After these samples were incubated for 18 and 24 hours, a panel of experts evaluated the intensity of the odor compared with a control sample, which was 1 ml of sweat incubated without addition of active agent.
The results are expressed below as a percentage of change in the unpleasantness of the odor compared with this control sweat sample (average of the percentages of change at 18 hours and 24 hours).
The active agents (A) and (B) correspond to zinc salicylate trihydrate from Bernardy Chimie and to the active agent (C) containing Triclosan.

Corynebacterium xerosis = experiment: Bactericidal activity of a composition on microorganisms involved in underarm odor; type: cell-based; settings: summary in text for the active agent
Description: The test described herein allows a quantitative determination of the bactericidal activity of a composition on microorganisms under optimum growth conditions, i.e., microorganisms of the Corynebacterium xerosis type (Institut Pasteur Collection No. 5216) grown on soybean tryptocasein agar on a slope.
On the day before the test, 32 g of soybean tryptocasein broth were placed in a pill bottle and incubated at 35° C. On the day of the test, 4 g of the test composition were added and the mixture was homogenized using a Vortex mixer.
A product-free growth control was prepared under the same conditions in order to check that the microorganisms were under favorable growth conditions throughout the duration of the test.
For the preparation of the inoculum, five days before the start of the test, the two bacterial strains were subcultured on a suitable medium. Incubation was performed for 5 days at 35° C. On the day of the test, the slope was washed with about 9 ml of diluent: the suspension obtained has a titre of […] (counting was performed). […]
The colonies were counted on the dishes containing more than 20 and less than 200 colonies. […]
The bactericidal activity of each of the formulations 2, 3 and 4 with respect to the strain Corynebacterium xerosis was measured and compared with a formulation without active agent.

## Oc1cc(Cl)ccc1Oc1ccc(Cl)cc1Cl [(C), 2,4,4′-trichloro-2′-hydroxydiphenyl ether, reference compound]
[1]; 0.8 mg AM/ml of sweat
  % change in the unpleasantness of odor: −55%

## Zinc salicylate
Corynebacterium xerosis
  antibacterial activity on the Corynebacterium xerosis strains: low (1 Log of reduction: low)

## zinc salicylate trihydrate [(A)]
[1]; 1 mg AM/ml of sweat
  % change in the unpleasantness of odor: −45%
[1]; 5 mg AM/ml of sweat
  % change in the unpleasantness of odor: −48%

Source: patent publication US20050019288A1, “Alcohol-based aerosol deodorant composition comprising at lease one zinc salicylate or a derivative thereof” (priority 2003, published 2005)
